Results on one molecule are retold here after paper PMC5520057, “Modulation of nongenomic activation of PI3K signalling by tetramerization of N-terminally-cleaved RXRα” (Nature Communications, 2017).

The target in assay [1] is T1, RXRα-LBD (Homo sapiens, UniProt P19793).
T1 construct: The human RXRα LBD (residues Thr223 to Thr462); made in house; host or cells: Escherichia coli BL21
T1 sequence (P19793 223-462): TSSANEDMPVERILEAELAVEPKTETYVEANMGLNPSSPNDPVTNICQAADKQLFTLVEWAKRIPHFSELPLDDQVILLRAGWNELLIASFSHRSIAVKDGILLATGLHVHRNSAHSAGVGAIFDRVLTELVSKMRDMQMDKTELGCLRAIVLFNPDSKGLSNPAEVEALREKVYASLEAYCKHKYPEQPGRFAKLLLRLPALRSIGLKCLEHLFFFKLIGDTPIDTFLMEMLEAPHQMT
The experiment in a line: Isothermal titration calorimetry (ITC), RXRα-LBD. The assay is classed as binding. As to conditions: 25 °C, protein 50 μM in 25 mM Tris-HCl, pH 7.5, 150 mM NaCl, 0.1% DMSO, compound 1 mM. How it is done:
The human RXRα LBD (residues Thr223 to Thr462) cloned as an N-terminal histidine-tagged fusion protein in pET15b expression vector was expressed in Escherichia coli BL21 strain (Stratagene). After sonication, cell extract was incubated with the His60 Ni Superflow resin, and His-tagged RXRα-LBD-resin complexes were washed, eluted and concentrated to 5 mg ml^−1 for subsequent trails. For crystallization experiment, bovine thrombin (Sigma) was used to cleave the His tag from the purified His-tagged RXRα-LBD. The resulting His tag was removed on the Resource-Q column (GE) using 0.1–1 M NaCl gradient and the Tris-Cl pH 8 buffer. RXRα-LDB was further purified using gel filtration on a Superdex 200 2660 column (GE) pre-equilibrated with the 75 mM NaCl, 20 mM Tris-Cl buffer (pH 8).
Binding of compounds to RXRα-LBD or mutant was studied in […] at 25 °C using isothermal titration calorimetry (ITC) assay that measures the heat either released or absorbed during binding. The purified His-tagged RXRα-LBD or mutant protein (50 μM in 25 mM Tris-HCl, pH 7.5, 150 mM NaCl, 0.1% DMSO) was placed in the sample cell of MicroCal VP-ITC titration calorimeter. The compounds to be studied were diluted to a concentration of 1 mM in the same buffer. All solutions were degassed before the titrations. […] Calorimetric data were analysed using MicroCal Origin software (version 7.0).
(In ITC the heat of successive injections is recorded.)

For assay [2], the system named is RXRα-LBD. The experiment in a line: BS3 crosslinking, transfected RXRα-LBD. The assay is classed as cell-based. As to conditions: HepG2 cells; 9-cis-RA (10^−7 M) or K-80003 (5 × 10^−6 M) for 6 h; BS3 1 mM; western blotting. How it is done:
Cell lysates were then prepared and incubated with bis[sulfosuccinimidyl] suberate (BS3, Pierce) dissolved in dimethyl sulfoxide to a final concentration of 1 mM. The reactions were stopped with protein gel loading buffer. Samples were resolved by SDS/PAGE in 8% acrylamide gels and protein bands were visualized by western blotting.
For orientation: Immunoblotting shows a protein as a band on a membrane.

Assay [3] relates to p85α / tRXRα/R316E interaction. The experiment in a line: coIP, p85α with tRXRα/R316E. The assay is classed as cell-based. Conditions: HEK293T cells; K-80003 (5 × 10^−6 M) for 6 h; coIP anti-HA.
Description: For coIP assay[29], HEK293T cells grown in 10 cm dishes were transfected with various plasmids. Cells were lysed in 1 ml of lysis buffer (20 mM Tris (pH 7.5), 150 mM NaCl, 1% Triton X-100, 1 mM EDTA, 30 mM NaF, 2 mM sodium pyrophosphate) with a cocktail of proteinase inhibitors (Roche). Lysates were incubated with the appropriate antibody for 12 h at 4 °C and subsequently incubated with protein A-Sepharose beads for 1 h. The immunoprecipitates were collected and washed three times with lysis buffer. The protein–antibody complexes recovered on beads were subjected to immunoblotting using appropriate antibodies after separation by SDS-PAGE. Input represents 5% of cell lysates used for coIP assays.
The test system of another assay is MCF-7 xenograft tumours. The experiment in a line: MCF-7/tRXRα xenograft tumours, western blotting. The class given is in vivo, nude mice. As to conditions: MCF-7/tRXRα tumour; K-80003 20 mg kg^−1 i.p., 12 days. The method, then:
Proteins or cell lysates were electrophoresed by SDS-PAGE gel and transferred to polyvinylidene difluoride (PVDF) membrane. The membranes were blocked with 5% skimmed milk in TBST (50 mM Tris-HCl (pH 7.4), 150 mM NaCl and 0.1% Tween20) for 1 h, then incubated with primary antibodies and secondary antibodies and detected using ECL system (Thermo). The dilutions of the primary antibodies were anti-RXRα (ΔN197, Santa Cruz) in 1:1,000, anti-PARP (H-250, Santa Cruz) in 1:3,000, anti-p85α (Millipore) in 1:1,000, anti-p-AKT (D9E, Cell Signaling Technology) in 1:1000, anti-AKT1/2/3 (H-136, Santa Cruz) in 1:1,000, anti-β-actin (Sigma) in 1:5,000, anti-c-myc (9E10, Santa Cruz) in 1:3,000, anti-HA (F-7, Santa Cruz) in 1:3,000, anti-Flag (F1804, Sigma) in 1:3,000. Images of all uncropped western blots can be found in Supplementary Figs 10–14.
For nude mice xenograft study, Myc-RXRα and Myc-tRXRα cloned into pcdna3.0 vector were stably transfected into MCF-7 cells, and the resulting stable clones and control clone (2 × 10^6 cells in 100 μl) were injected subcutaneously into nude mice (BALB/c, SPF grade, 16–18 g, 4–5-week old). For drug treatment, mice were intraperitoneally injected (i.p.) daily with K-80003 (20 mg kg^−1) diluted in Tween-80 or vehicle (tween-80). Body weight and tumour size were measured every 2 days. […]

The test system of a further assay is RXRα. The experiment in a line: MMTV-PyMT tumours, RXRα immunostaining. As to conditions: diet with K-80003 (100 mg kg^−1) for 4 weeks; Δ197 anti-RXRα antibody. The class given is in vivo, MMTV-PyMT mice. How it is done: Cells mounted on glass slides or tumour tissue frozen sections (5-μm-thick) were washed with PBS and fixed in 4% paraformaldehyde (PFA) for 15 min and permeabilized with PBS containing 0.1% Triton X-100 for 15 min. Fixed cells or tumour tissues were blocked with 5 mg ml^−1 BSA in PBS for 30 min at room temperature, followed with incubation with primary antibodies for 3 h and secondary antibodies at room temperature for 1 h and co-stained with 4′6′-diamidino-2-phenylindole (DAPI) to visualize nuclei. The images were taken under an LSM-510 confocal laser scanning microscope system (Carl Zeiss).
For nude mice xenograft study, Myc-RXRα and Myc-tRXRα cloned into pcdna3.0 vector were stably transfected into MCF-7 cells, and the resulting stable clones and control clone (2 × 10^6 cells in 100 μl) were injected subcutaneously into nude mice (BALB/c, SPF grade, 16–18 g, 4–5-week old). For drug treatment, mice were intraperitoneally injected (i.p.) daily with K-80003 (20 mg kg^−1) diluted in Tween-80 or vehicle (tween-80). Body weight and tumour size were measured every 2 days. Mice were killed after 12-day drug treatment and the tumours removed for various assessments. […]

The next assay concerns p85α / tRXRα interaction. Also noted: method as in PMID 20541701. Conditions: cited from earlier work.
For another assay, the system named is PI3K signalling. Also on record: method as in PMID 20541701. As to conditions: cited from earlier work.
The subject of another assay is tRXRα. Also noted: method as in PMID 20541701. Conditions: cited from earlier work.

Structures are written as SMILES.

Turning to `CC1=C(CC(=O)O)c2cc(F)ccc2/C1=C\c1ccc(C(C)C)cc1` [K-80003], at RXRα-LBD [1], the “N (stoichiometry)” value was 1.52. The “crosslinked RXRα-LBD species” value in the assay with RXRα-LBD [2] was “crosslinked species on SDS-PAGE gels of 25, 50 and 100 kDa, corresponding to monomer, dimer and tetramer of RXRα-LBD”. Further, the “modulation of tRXRα/R316E interaction with p85α” value in assay [3] was “failed to modulate the interaction of both mutants with p85α”. In addition, in the assay with MCF-7 xenograft tumours, the “AKT activation in tumours” value is on record as “reduced AKT activation” and the “PARP cleavage in tumours” value was “enhanced PARP cleavage”. The “RXRα staining localization in PyMT tumours” value with RXRα was “mainly found in the nucleus”. For the same molecule, the “inhibition of tRXRα interaction with p85α” value in the assay with p85α / tRXRα interaction is listed as “inhibits its interaction with p85α”. For the same molecule, the “inhibition of activation of PI3K signalling” value in the assay on PI3K signalling was “inhibits its interaction with p85α and activation of PI3K signalling”. In addition, the “binding to tRXRα” value in the assay on tRXRα is on record as “binds to tRXRα”.
